Data from US8829194B2, “Crystalline forms of the sodium salt of (4-{4-[5-(6-trifluoromethyl-pyridin-3-ylamino)-pyridin-2-yl]-phenyl}-cyclohexyl)-acetic acid” (Novartis AG, priority 2010, dated 2014).
Blank lines part the entries; values can stand above or below the compound they belong to.

How the values were obtained:
Assay type in all cases: physicochemical
[1] = Water loss as a function of temperature by TG/DTA (loss on drying, thermal transitions); conditions: for Loss On Drying (LOD) (%): total water loss by thermogravimetry, rt-295° C., 10°/min; for LOD (thermal transitions): DTA signals, temperature at which the water is lost
Source text: (ii) Thermogravimetric/Differential Thermal Analysis (TG/DTA) […]
The data listed below show the total water loss (LOD by thermogravimetry (TG)) and thermal transitions (DTA signals) show the temperature at which the water is lost.

[2] = Physical stability of the crystalline forms (relative humidity, absorption-desorption isotherm FIG. 1, temperature, storage); conditions: absorption-desorption isotherm, FIG. 1
[3] = Humidity microbalance analysis (VTI), moisture sorption at 25° C.; conditions: for hygroscopicity / moisture uptake in words: variations in humidity
Source text: Thus, Modification C retains a stable weight from 0% relative humidity to 80% relative humidity while Modification A loses water with decreasing humidity and gains moisture with increasing humidity. With Modification C, a re-hydration step and the possible variability in water content between batches may thus be eliminated.
Modification N is particularly suitable for industrial scale-up. It is a crystalline anhydrous form.
Modification O is particularly suitable for industrial scale-up. It is a crystalline anhydrous form.

SMILES: O=C([O-])C[C@H]1CC[C@H](c2ccc(-c3ccc(Nc4ccc(C(F)(F)F)nc4)cn3)cc2)CC1.[Na+] [Modification B, sodium salt of (4-{4-[5-(6-trifluoromethyl-pyridin-3-ylamino)-pyridin-2-yl]-phenyl}-cyclohexyl)-acetic acid]
Loss On Drying (LOD) (%) ([1]; listed as B): 6.9%

SMILES: O=C([O-])C[C@H]1CC[C@H](c2ccc(-c3ccc(Nc4ccc(C(F)(F)F)nc4)cn3)cc2)CC1.[Na+] [Modification H, sodium salt of (4-{4-[5-(6-trifluoromethyl-pyridin-3-ylamino)-pyridin-2-yl]-phenyl}-cyclohexyl)-acetic acid]
LOD (thermal transitions) ([1]; listed as H): 68.3 °C
Loss On Drying (LOD) (%) ([1]; listed as H): 3%

SMILES: O=C([O-])C[C@H]1CC[C@H](c2ccc(-c3ccc(Nc4ccc(C(F)(F)F)nc4)cn3)cc2)CC1.[Na+] [Modification J, sodium salt of (4-{4-[5-(6-trifluoromethyl-pyridin-3-ylamino)-pyridin-2-yl]-phenyl}-cyclohexyl)-acetic acid]
Loss On Drying (LOD) (%) ([1]; listed as J): 3.1%

SMILES: O=C([O-])C[C@H]1CC[C@H](c2ccc(-c3ccc(Nc4ccc(C(F)(F)F)nc4)cn3)cc2)CC1.[Na+] [Modification I, sodium salt of (4-{4-[5-(6-trifluoromethyl-pyridin-3-ylamino)-pyridin-2-yl]-phenyl}-cyclohexyl)-acetic acid]
Loss On Drying (LOD) (%) ([1]; listed as I): 9.5%

SMILES: O=C([O-])C[C@H]1CC[C@H](c2ccc(-c3ccc(Nc4ccc(C(F)(F)F)nc4)cn3)cc2)CC1.[Na+] [Modification L, sodium salt of (4-{4-[5-(6-trifluoromethyl-pyridin-3-ylamino)-pyridin-2-yl]-phenyl}-cyclohexyl)-acetic acid]
LOD (thermal transitions) ([1]; listed as L): 65 °C
Loss On Drying (LOD) (%) ([1]; listed as L): 14.9%

SMILES: O=C([O-])C[C@H]1CC[C@H](c2ccc(-c3ccc(Nc4ccc(C(F)(F)F)nc4)cn3)cc2)CC1.[Na+] [Modification F, sodium salt of (4-{4-[5-(6-trifluoromethyl-pyridin-3-ylamino)-pyridin-2-yl]-phenyl}-cyclohexyl)-acetic acid]
LOD (thermal transitions) ([1]; listed as F): 90 °C
Loss On Drying (LOD) (%) ([1]; listed as F): 3.5%

SMILES: O=C([O-])C[C@H]1CC[C@H](c2ccc(-c3ccc(Nc4ccc(C(F)(F)F)nc4)cn3)cc2)CC1.[Na+] [Modification D, sodium salt of (4-{4-[5-(6-trifluoromethyl-pyridin-3-ylamino)-pyridin-2-yl]-phenyl}-cyclohexyl)-acetic acid]
LOD (thermal transitions) ([1]; listed as D): 84.5 °C
Loss On Drying (LOD) (%) ([1]; listed as D): 12.4%

SMILES: O=C([O-])C[C@H]1CC[C@H](c2ccc(-c3ccc(Nc4ccc(C(F)(F)F)nc4)cn3)cc2)CC1.[Na+] [Modification E, sodium salt of (4-{4-[5-(6-trifluoromethyl-pyridin-3-ylamino)-pyridin-2-yl]-phenyl}-cyclohexyl)-acetic acid]
Loss On Drying (LOD) (%) ([1]; listed as E): 9.5%

SMILES: O=C([O-])C[C@H]1CC[C@H](c2ccc(-c3ccc(Nc4ccc(C(F)(F)F)nc4)cn3)cc2)CC1.[Na+] [Modification G, sodium salt of (4-{4-[5-(6-trifluoromethyl-pyridin-3-ylamino)-pyridin-2-yl]-phenyl}-cyclohexyl)-acetic acid]
Loss On Drying (LOD) (%) ([1]; listed as G): 11.7%

Other lines, results leading:

LOD (thermal transitions) ([1]; listed as M): None
Loss On Drying (LOD) (%) ([1]; listed as M): 0%
relative humidity range in which the form is stable [2]: below 10 % relative humidity
SMILES: O=C([O-])C[C@H]1CC[C@H](c2ccc(-c3ccc(Nc4ccc(C(F)(F)F)nc4)cn3)cc2)CC1.[Na+] [Modification M, sodium salt of (4-{4-[5-(6-trifluoromethyl-pyridin-3-ylamino)-pyridin-2-yl]-phenyl}-cyclohexyl)-acetic acid]

LOD (thermal transitions) [1]: None
Loss On Drying (LOD) (%) [1]: 1.2%
relative humidity at which moisture gain starts / becomes significant [3]: 80 % relative humidity
Mass uptake (% water absorbed) ([3]; 0 % residual humidity): 0.0%
Mass uptake (% water absorbed) ([3]; 10 % residual humidity): 0.0%
Mass uptake (% water absorbed) ([3]; 50 % residual humidity): −0.5%
Mass uptake (% water absorbed) ([3]; 60 % residual humidity): −0.5%
Mass uptake (% water absorbed) ([3]; 70 % residual humidity): −0.5%
Mass uptake (% water absorbed) ([3]; 79 % residual humidity): −0.4%
Mass uptake (% water absorbed) ([3]; 90 % residual humidity): 4.3%
Mass uptake (% water absorbed) ([3]; 95 % residual humidity): 13.3%
hygroscopicity / moisture uptake in words [3]: low hygroscopicity
SMILES: O=C([O-])C[C@H]1CC[C@H](c2ccc(-c3ccc(Nc4ccc(C(F)(F)F)nc4)cn3)cc2)CC1.[Na+] [Modification O, sodium salt of (4-{4-[5-(6-trifluoromethyl-pyridin-3-ylamino)-pyridin-2-yl]-phenyl}-cyclohexyl)-acetic acid]

LOD (thermal transitions) [1]: None
Loss On Drying (LOD) (%) [1]: 0.3%
relative humidity at which moisture gain starts / becomes significant [3]: 70 % relative humidity
Mass uptake (% water absorbed) ([3]; 0 % residual humidity): 0.0%
Mass uptake (% water absorbed) ([3]; 10 % residual humidity): 0.1%
Mass uptake (% water absorbed) ([3]; 50 % residual humidity): 0.7%
Mass uptake (% water absorbed) ([3]; 60 % residual humidity): 0.9%
Mass uptake (% water absorbed) ([3]; 70 % residual humidity): 1.0%
Mass uptake (% water absorbed) ([3]; 79 % residual humidity): 3.7%
Mass uptake (% water absorbed) ([3]; 90 % residual humidity): 18.2%
Mass uptake (% water absorbed) ([3]; 95 % residual humidity): 19.1%
hygroscopicity / moisture uptake in words [3]: low hygroscopicity
SMILES: O=C([O-])C[C@H]1CC[C@H](c2ccc(-c3ccc(Nc4ccc(C(F)(F)F)nc4)cn3)cc2)CC1.[Na+] [Modification N, sodium salt of (4-{4-[5-(6-trifluoromethyl-pyridin-3-ylamino)-pyridin-2-yl]-phenyl}-cyclohexyl)-acetic acid]

LOD (thermal transitions) ([1]; listed as P): 65 °C
Loss On Drying (LOD) (%) ([1]; listed as P): 10.9%
SMILES: O=C([O-])C[C@H]1CC[C@H](c2ccc(-c3ccc(Nc4ccc(C(F)(F)F)nc4)cn3)cc2)CC1.[Na+] [Modification P, sodium salt of (4-{4-[5-(6-trifluoromethyl-pyridin-3-ylamino)-pyridin-2-yl]-phenyl}-cyclohexyl)-acetic acid]
